Results reported in US10961264B2, “Process for isolating a (thio)phosphoric acid derivative” (BASF SE, priority 2015, dated 2021).

Experiments:
[1] = Solubility of the (thio)phosphoric acid derivative in process solvents; type: physicochemical
[2] = as described in U.S. Pat. No. 8,513,460 B1; cited from earlier work

Row | Compound | solubility in dichloromethane ([1]; dichloromethane, even at higher temperatures of 30° C. to 80° C.) | dissolution in dichloromethane in amounts comparable to NBPT ([1]; dichloromethane, same conditions as NBPT) | dissolution in ethyl acetate ([1]; ethyl acetate, upon moderate heating, precipitates again on cooling to room temperature) | solubility in aromatic solvents such as toluene ([1]; toluene, even at higher temperatures of 30° C. to 80° C.) | dissolution in toluene in amounts comparable to NBPT ([1]; toluene, same conditions as NBPT) | solubility in toluene ([1]; toluene, upon heating the product mixture (work-up of U.S. Pat. No. 8,513,460 B1)) | dissolution in toluene [2]
1 | CCCNP(N)(N)=S [NPPT, N-(n-propyl)thiophosphoric acid triamide] | poor solubility | not possible to dissolve | can be dissolved to a large extent | poor solubility | not possible to dissolve | not sufficiently soluble | 
2 | CCCCNP(N)(N)=S [NBPT, N-(n-butyl)thiophosphoric acid triamide] |  |  |  |  |  |  | can be dissolved
